Where “and” joins values, the source holds several entries; their conditions need not be identical. Equal values may be shown once. Entries after “also recorded” stand apart in the source; their conditions may differ.
Assays:
Format in all cases: physicochemical
[1] = Overall association constant by fluorescence anisotropy titration, DMPG liposomes; conditions: for overall association constant K, DMPG: DMPG (negatively charged, fluid phase), PBS, 37° C.; for bound drug level, DMPG: DMPG liposomes, 0.29M lipid, estimated
Procedure: While the spectral changes provide qualitative evidence that the camptothecin drugs bind the liposome membranes, fluorescence anisotropy titration, offers the most sensitive means for quantitatively assessing the extent of the binding. The fluorescence anisotropy titration was performed according to the method of Burke and Tritton, Biochemistry 24: 1768-1776 (1985).
The concentrations of free camptothecin drugs and camptothecin drugs associated with liposomes were determined at various lipid concentrations. All experiments were conducted in glass tubes pretreated with a silating agent, Surfacil, from Pearce Chemical, Rockford, Ill. The titration was conducted at camptothecin drug concentration of 1×10^-6 M in PBS at 37° C. Anisotropy values at each lipid concentration were determined within less than 30 seconds following the addition of the camptothecin drugs to the liposome suspension. The (a) values were determined for fixed drug concentration, typically 2 μM, while the lipid concentration was varied from 0 to 0.29M. By varying the lipid concentration rather than varying the drug concentration, the problem of self-association phenomenon which occurs for camptothecin drugs concentrations in excess of 10 μM is avoided. Also, the well-known phenomenon known as inner filter effect which occurs using fluorescent material at high optical densities is a is avoided.
Adsorption isotherms like those shown in FIGS. 4A and 4B were used to determine overall association constants for the camptothecin drugs. Overall association constants are defined as: […]
where [AB ] represents the concentration of the camptothecin drug bound to the vesicle membrane, [AF ] represents the concentration of free drug, and [L] represents the total lipid concentration in the liposome suspension. This equation is valid when the concentration of free lipid is approximately equal to the concentration of total lipid, that is, the concentration of free lipid is in great excess over the concentration of bound drug. Provided this concentration is satisfied, K may be determined from the inverse of the slope of a double reciprocal plot according to (Burke and Tritton, Biochemistry 24:1776, 1985). In such a plot, 1/bound fraction of the total camptothecin drug is plotted vs. 1/[lipid], with a y-intercept value of 1.
The stabilization of camptothecin drugs was determined using different lipids. Three types of lipids (and thus 3 types of membranes) were examined: fluid-phase and electroneutral L-α-dimyristoylphosphatidylcholine (DMPC); fluid-phase and negatively-charged L-α-dimyristoylphosphatidylglycerol (DMPG), and solid-phase and electroneutral L-α-distearoylphosphatidylcholine (DSPC). While DMPC and DMPG have identical chain length, the charge on their head groups differ. DMPC and DSPC have identical head groups, but DMPC has acyl chains having 14 carbons per chain, which are four carbons shorter than the DSPC, which has 18 carbons per chain. This difference of 4-carbon chain length results in DMPC being fluid-phase at 37° C. while DSPC is solid-phase. The 7 camptothecin drugs listed in Table III were combined with liposomes containing the above lipids.
FIGS. 4A and 4B show the extent of camptothecin drug binding to liposomes as a function of lipid concentration for DMPC and DMPG liposomes. DMPC liposomes were made as in Example 1, at lipid concentrations from 0 to 0.29M, using CMC, 10-hydroxycamptothecin, 10,11-methylenedioxy-camptothecin, topotecan, camptothecin, and camptothecin carboxylate sodium salt, as shown in FIG. 4B. DMPG liposomes were made as in Example 2, at lipid concentrations from 0 to 0.29M, using 9-chloro-10,11-methylenedioxycamptothecin CMC, 10,11-methylenedioxycamptothecin, camptothecin, and topotecan, 9-aminocamptothecin, as shown in FIG. 4A. The lipid concentration […] of the data using double-reciprocal plots gave identical overall association/binding constants of 100M^-1.

[2] = HPLC assay of lactone ring hydrolysis, free in PBS or associated with liposomes or micelles
[3] = Iodide quenching of camptothecin fluorescence
Source text: Additional evidence that the fluorochrome of the camptothecin drugs penetrates into the membrane of the liposome comes from iodide quenching data. Iodide has an immeasurably small permeation of the liposome membrane and is able to discriminate between camptothecin drug molecules free in solution and those molecules located in the interior of the liposome membrane. These methods have been described in detail in Burke and Tritton, Biochemistry (1985) 24: 5972-5980; G. L. Jendrasiak, Chem. Phys. Lipids 9: 133-146 (1992); and, M. Cranney et al. Biochem. Biophys. ACTA 735, 418-425, which are incorporated herein by reference. The quenching studies were conducted using 0.5M iodide in PBS buffer.
The quenching of fluorescence of both camptothecin free in PBS and liposome membrane bound camptothecin by iodide ions was conducted at a constant halide concentration of 0.5M, in the presence of 2 mM sodium thiosulfate to prevent the oxidation of iodide. The camptothecin concentration was 1×10^-6 M and the iodide concentration was varied from 0 to 0.5M, and the chloride concentration was adjusted accordingly. The quenching experiments for the camptothecin bound to DMPC or DMPG liposome membranes were done at a lipid concentration of 100 mg/mL, so that the fraction of the bound camptothecin was more than 97%.
Fluorescence of the liposome membrane bound camptothecin is quenched to relatively lower extent, for instance, F0 /F, for camptothecin bound to DMPC liposomes is only 4.1 (see Plot C). Also, there is a clear cut upward curvature in the F0 /F vs. [I] plot (curve "A", […]) for camptothecin free in PBS whereas F0 /F vs. [I] plot for camptothecin bound with DMPC membranes is linear. Quenching of fluorescence is believed to proceed via the dynamic (or collisional) and static quenching processes. Fluorescence quenching by a quencher molecule in contact with the fluorophore at the instant of excitation is considered to be static quenching. The static and dynamic quenching processes are separated by the following modified form of the Stern-Volmer equation (Eftink & Ghiron, 1976): […]
where, V is the static quenching constant and Ksv the dynamic or collisional quenching constant. The V and Ksv values were obtained by fitting the quenching data to equation 3 with a value of V which gave the best correlation coefficient for the plot of F0 /Fe^v[Q] vs. [Q]. The upward curvature of the quenching data of free camptothecin free in PBS seen in FIG. 8 could be attributed to the static quenching process. The straight line "B", which is tangential to the F0 /F vs. [I] plot for free camptothecin in PBS, represents the dynamic part of the iodide quenching of camptothecin fluorescence, the slope of which is equal to Ksv (slope=44 3M^-1 where V=14M^-1 correlation coefficient=0.9993). The Stern-Volmer plot for the liposome bound camptothecin is linear, curve "C", FIG. 8, the slope being 6.1M^-1. […] The dashed line represents the static and dynamic quenching components camptothecin free in solution is determined by F0 /F values.

[4] = Overall association constant by fluorescence anisotropy titration, DMPC liposomes; conditions: 2 mM drug, 0.29M DMPC
[5] = bound to DMPC liposomes, iodide

CCC1(O)C(=O)OCc2c1cc1n(c2=O)Cc2cc3c(Cl)c4c(cc3nc2-1)OCO4 (stereo not drawn) [9-chloro-10,11-methylenedioxycamptothecin]
overall association constant K, DMPG [1]: 320 M⁻¹
bound drug level, DMPG [1]: 99%

CCC1(O)C(=O)OCc2c1cc1n(c2=O)Cc2cc3cc4c(cc3nc2-1)OCO4 (stereo not drawn) [10,11-methylenedioxycamptothecin]
drug not hydrolysed at about 2.5 hours ([2]; SDS micelles, about 2.5 hours): about 75%
t1/2, octylphenolpolyoxyethylene micelles ([2]; octylphenolpolyoxyethylene micelles, PBS pH 7.4): 1.5 h

CCC1(O)C(=O)OCc2c1cc1n(c2=O)Cc2cc3cc(O)ccc3nc2-1 (stereo not drawn) [10-hydroxycamptothecin]
overall association constant K, DMPG [1]: 75 M⁻¹

CC[C@@]1(O)C(=O)OCc2c1cc1n(c2=O)Cc2cc3ccccc3nc2-1 [camptothecin]
bound drug level, DMPG [1]: 97%
fraction of bound camptothecin in quenching experiments ([3]; DMPC or DMPG, lipid 100 mg/mL): more than 97%
F0/F (iodide quenching), DMPC-bound ([3]; bound to DMPC liposomes, 0.5M iodide): 4.1
dynamic quenching constant Ksv (slope), DMPC-bound [3, 5]: 6.1 M⁻¹ and 6.2 M⁻¹
static quenching constant V, DMPC-bound [3, 5]: 0 M⁻¹
F0/F (iodide quenching), free ([3]; free in PBS pH 7.4, 0.5M iodide): about 54.3
dynamic quenching constant Ksv, free ([3]; free in PBS, iodide): 44.3 M⁻¹
bound camptothecin level at raised drug concentration [4]: 97%
t1/2 drug DSPC Lip. ([2]; DSPC liposomes, pH 7.4, 37° C.): ~ 100 min.

CC[C@@]1(O)C(=O)OCc2c1cc1n(c2=O)Cc2cc3c(CN(C)C)c(O)ccc3nc2-1 [topotecan]
reduced ability to bind negatively-charged liposome membranes relative to CMC ([1]; DMPG): 6 -fold
overall association constant K, DMPG [1]: 50 M⁻¹
binding preference DMPG over DMPC ([1]; DMPG compared to DMPC): preferentially binds negatively charged DMPG liposomes as compared to DMPC liposomes; also recorded: strong binding preference for the negatively-charged lipid DMPG
bound drug level, DMPG [1]: 93%

From patent US5552156A, “Liposomal and micellular stabilization of camptothecin drugs” (Ohio State University, priority 1995, dated 1996)
